Reference: patent US9150505B2, “Prophylactic or therapeutic agent for diabetes or obesity” (AJINOMOTO CO., INC., priority 2010, dated 2015)

System: NCI-H716 cells
Assay: Promotion of GLP-1 secretion in NCI-H716 cells
Assay type: cell-based, human
Conditions: 10 mM, 30 minutes at 37° C., buffer assumed to be 1.0
Protocol: Human appendix-derived cell line NCI-H716 (ATCC No CCL-251) was cultured in a 10% FBS-containing DMEM/HamF-12 medium at 37° C. in the presence of 5% CO2. NCI-H716 cells were seeded in a poly-D-lysine-coated 96-well plate at 100,000 cells/well and cultured for two days. Prior to sample addition, wells were washed with Hepes buffer (20 mM Hepes, 146 mM NaCl, 5 mM KCl, 1.5 mM CaCl2, 1 mM MgSO4, 5.5 mM D-glucose, 0.2% BSA, pH 7.4). Fifty μl of a sample solution dissolved in the same buffer was added and incubated at 37° C. for 30 minutes. The above-described compounds in Example 6 (Compound 1) (10 mM), Example 48 (Compound 2) (5 mM) and Example 14 (Compound 3) (2 mM) were used as the samples. In addition, a Hepes buffer was used as a control. After collecting the supernatant, the cells were precipitated by centrifugation (5,000×g, 1 min.) to collect the supernatant thereof. GLP-1 level in the supernatant was determined as described below according to a quantitative method for GLP-1 that uses GLP-1 receptor gene expression cells.
According to a routine method (Lopez de Maturana R, Willshaw A, Kuntzsch A, Rudolph R, Donnelly D. J Biol Chem. 2003 Mar. 21; 278 (12):10195-200), human GLP-1 receptor gene (Nucleotide sequence 1) was integrated into pcDNA3.1 to prepare human GLP-1 receptor gene expression plasmid hGLP-1R/pcDNA3.1. Moreover, chimeric gene (Nucleotide sequence 2) of human Gα15 gene and human gustducin gene was integrated into pcDNA3.1 to prepare G protein expression plasmid Gα15-gust/pcDNA3.1. […] After 24 hours of cultivation in a CO2 incubator, changes in the fluorescence intensity were determined starting immediately after sample addition according to the Ca^2+ fluorescence indicator FLIPR Calcium 4 Assay Kit protocol (Molecular Devices) using FlexStation (Molecular Devices). Concentration dependency of human GLP-1 (7-36 Amide; Peptide Institute) with respect to the changes in the fluorescence intensity was determined and used as a standard curve for quantitating the sample. […]

## N[C@@H](CNC(=O)Nc1cc(Cl)cc(S(=O)(=O)O)c1O)C(=O)O [Example 6, (2S)-2-amino-3-{[(5-chloro-2-hydroxy-3-sulfophenyl)carbamoyl]amino}propanoic acid]
  Relative secretion volumes (GLP-1): 2.16
